In patent US5635379A, “D-2-alkyl-tryptophan and peptides containing same” (Deghenghi; Romano, priority 1990, dated 1997):
Square brackets hold non-standard residues; d marks the D form. Peptide text beside a SMILES is read from it. dTrp(2-Me) = Cc1[nH]c2ccccc2c1C[C@@H](N)C(=O)O

Assays:
[1] = system: pituitary cell monolayers; assay: GH-releasing activity in pituitary cell culture (monolayers); format: cell-based, Sprague Dawley rats; conditions: for GH in medium: 2 hours incubation
Description: Male Sprague Dawley rats (Charles River, Calco, Italy) of 2-3 months of age were used. Rats were housed at 22 +2° C., with lighting cycle of 14 h light: 10 h dark (lights on from 06.00 to 20.00 h), at least 10 days before starting the experiments. A standard dry diet and water were available ad libitum.
Pituitary tissue used for cell dissociation included only the anterior lobe. Briefly, pituitary glands were collected in sterile F-10 medium and after cutting into small fragments incubated twice (30 minutes each) at 37° C. in F-10 medium containing 6% fetal calf serum and collagenase (2.5 mg/ml) (Boehringer, Mannheim GmbH, Germany). Fragments were then washed in Dulbecco's PBS, Ca^2+ and Mg^2+ free medium and mechanically dissociated. Single cell suspension was planted onto 24-well (2×10^5 cells/well) culture plates. The cells were incubated in F-10 medium supplemented with 10% horse serum, 4% fetal calf serum and gentamycin (25 μg/ml), in a humidified atmosphere of 5% CO2 and 95% air at 37° C.
After 3 days, the medium was removed and the cells washed twice with serum free F-10, then incubated with 1 ml of F-10 containing 0.1% BSA only, or with added various concentrations of synthetic peptides.
After incubation for 2 h at 37° C., media were collected and stored frozen at -20° C. until assayed for measurement of GH content.
Medium and plasma GH was measured by radioimmunoassay using materials supplied by the NIADDK Bethesda, Md. Values were expressed in term of NIASSK-rat-GH-RP-2 standard (potency 2 IU/ml), as ng/ml of medium or plasma.
The minimum detectable value of rat was 1.0 ng/ml; intra-assay variability was 6%. To avoid inter-assay variation, samples from each experiment were assayed simultaneously.

[2] = system: growth hormone secretion; assay: Growth hormone secretion in young healthy male volunteers; format: in vivo, human; conditions: young (20-30 years old) healthy male volunteers, various dosages
Description: The effects of HEXARELIN on growth hormone secretion in young (20-30 years old) healthy male volunteers were measured after the administration of various dosages.

[3] = system: Growth Hormone release; assay: GH release in 10-day old rats after subcutaneous injection; format: in vivo; conditions: s.c. 160 μg/kg
Description: The peptides of Examples 4 and 5 were tested as Growth Hormone releasers in rats. GH released in a series of seven 10-day old rats, injected subcutaneously with a standard dose of 160 μg/kg and sacrificed 15 minutes after the injection.

[4] = Hydrophobicity comparison (FIG. 12); format: physicochemical

Cc1[nH]c2ccccc2c1C[C@@H](NC(=O)[C@@H](N)Cc1cnc[nH]1)C(=O)N[C@@H](C)C(=O)N[C@@H](Cc1c[nH]c2ccccc12)C(=O)N[C@H](Cc1ccccc1)C(=O)N[C@@H](CCCCN)C(N)=O [Example 4, His-D-2-methyl-Trp-Ala-Trp-D-Phe-Lys-NH2] (H-H[dTrp(2-Me)]AW[dF]K-NH2)
GH in medium ([1]; 10^-6 M): 558.0 ± 19.1 ng/well
GH in medium ([1]; 10^-7 M): 589.1 ± 17.9 ng/well
GH in medium ([1]; 10^-8 M): 557.8 ± 15.9 ng/well
GH secretion versus basal ([1]; 10^-8 to 10^-6 M, two hours): stimulation of GH secretion over basal secretion
effect on growth hormone secretion [2]: effective in vivo
activity as Growth Hormone releaser [3]: very active
GH ([3]; sacrificed 15 minutes after injection): 201 ng/mL
hydrophobicity compared with GHRP-6 [4]: greater hydrophobicity than GHRP-6
